The values that follow come from EP4227307A1 (Genzyme Corporation, priority 2022, dated 2023).

Structures can show the parent of a compound that is named as a salt.

In this assay the target is T1, human recombinant 6His-Nterm SHP2 full-length (Thr2-Arg593) (Homo sapiens, UniProt Q06124).
T1 construct: 6His-Nterm SHP2 full-length (Thr2-Arg593, R&D system); 6His (N); purchased R&D system
T1 sequence (Q06124 2-593): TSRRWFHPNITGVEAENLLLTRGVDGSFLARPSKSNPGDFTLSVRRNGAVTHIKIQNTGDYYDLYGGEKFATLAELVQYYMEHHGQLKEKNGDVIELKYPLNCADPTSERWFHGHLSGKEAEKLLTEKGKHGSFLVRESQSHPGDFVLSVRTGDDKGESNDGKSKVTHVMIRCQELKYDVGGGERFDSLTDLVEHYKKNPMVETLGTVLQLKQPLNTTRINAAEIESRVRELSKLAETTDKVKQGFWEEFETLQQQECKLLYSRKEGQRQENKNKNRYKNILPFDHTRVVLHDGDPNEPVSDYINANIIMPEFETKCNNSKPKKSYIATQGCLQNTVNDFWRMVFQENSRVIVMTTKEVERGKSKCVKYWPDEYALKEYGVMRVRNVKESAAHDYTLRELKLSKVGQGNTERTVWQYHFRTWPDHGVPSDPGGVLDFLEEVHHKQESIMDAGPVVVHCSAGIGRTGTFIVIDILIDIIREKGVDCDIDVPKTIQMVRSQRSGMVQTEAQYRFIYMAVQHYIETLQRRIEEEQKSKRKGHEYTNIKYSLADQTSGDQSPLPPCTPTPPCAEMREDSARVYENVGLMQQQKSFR
The experiment in a line: SHP2 Phosphatase Assay (DiFMUP fluorescence). Particulars: SHP2 0.2 nM pre-incubated with 100 nM bi-phosphorylated activating peptide; compound 1000-0.05 nM, 30 min pre-incubation; DiFMUP 20 µM, 45 min, room temperature; 10-concentration dose-response. The assay is classed as biochemical. Summed up: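 SHP2 (0.2 nM) preactivated ≥10 min with 100 nM bis-phosphorylated peptide, then 30 min with compound (10 concentrations, 1000–0.05 nM) at room temperature, pH 7.2 HEPES buffer with DTT. DiFMUP (20 µM, added solution) reacted 45 min, pervanadate-stopped; fluorescence 350/450 nm. IC50 by 4-parameter logistic fit.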
On to `Cc1nc2c(s1)CC1(CCN(c3nc(C)c(-c4ccnc(C)c4Cl)n4nccc34)CC1)[C@@H]2N` [Compound 105, (4S)-1'-[7-(3-chloro-2-methyl-4-pyridyl)-6-methyl-pyrazolo[1,5-a]pyrazin-4-yl]-2-methyl-spiro[4,6-dihydrocyclopenta[d]thiazole-5,4'-piperidine]-4-amine hydrochloride], for which the concentration for half-maximal inhibition (IC50) worked out at 6 nM.
Turning to `Cc1ccc2c(n1)CC1(CCN(c3nc(C)c(-c4ccccc4F)n4nccc34)CC1)[C@@H]2N` [Compound 106, (5S)-1'-[7-(2-fluorophenyl)-6-methyl-pyrazolo[1,5-a]pyrazin-4-yl]-2-methyl-spiro[5,7-dihydrocyclopenta[b]pyridine-6,4'-piperidine]-5-amine hydrochloride], the IC50 worked out at 14 nM.
Regarding `Cc1ccc2c(n1)CC1(CCN(c3nc(C)c(-c4ccccc4)n4nccc34)CC1)[C@@H]2N` [Compound 107, (5 S)-2-methyl-1'-(6-methyl-7-phenyl-pyrazolo[1,5-a]pyrazin-4-yl)spiro[5,7-dihydrocyclopenta[b]pyridine-6,4'-piperidine]-5-amine hydrochloride], the IC50 worked out at 12 nM.
With `COc1nccc(-c2c(C)nc(N3CCC4(CC3)Cc3ncccc3[C@H]4N)c3ccnn23)c1Cl` [Compound 108, (5S)-1'-[7-(3-chloro-2-methoxy-4-pyridyl)-6-methyl-pyrazolo[1,5-a]pyrazin-4-yl]spiro[5,7-dihydrocyclopenta[b]pyridine-6,4'-piperidine]-5-amine], the IC50 was determined as 6 nM.
For `COc1cccc2c1CC1(CCN(c3nc(C)c(-c4ccccc4F)n4nccc34)CC1)[C@@H]2N` [Compound 109, (1S)-1'-[7-(2-fluorophenyl)-6-methyl-pyrazolo[1,5-a]pyrazin-4-yl] -4-methoxy-spiro[indane-2,4'-piperidine]-1-amine] the value was 10 nM; for `COc1cccc2c1CC1(CCN(c3nc(C)c(-c4ccnc(C)c4Cl)n4nccc34)CC1)[C@@H]2N` [Compound 110, (1S)-1'-[7-(3-chloro-2-methyl-4-pyridyl)-6-methyl-pyrazolo[1,5-a]pyrazin-4-yl]-4-methoxy-spiro[indane-2,4'-piperidine]-1-amine], 11 nM; for `COc1cccc2c1CC1(CCN(c3nc(C)c(-c4cnn(C)c4C)n4nccc34)CC1)[C@@H]2N` [Compound 111, (1S)-1-[7-(1,5-dimethylpyrazol-4-yl)-6-methyl-pyrazolo[1,5-a]pyrazin-4-yl] -4-methoxy-spiro[indane-2,4'-piperidine]-1-amine], 16 nM.
Turning to `Cc1cc2c(cn1)CC1(CCN(c3nc(C)c(-c4ccnc(C)c4Cl)n4nccc34)CC1)[C@@H]2N` [Compound 112, (5S)-1'-[7-(3-chloro-2-methyl-4-pyridyl)-6-methyl-pyrazolo[1,5-a]pyrazin-4-yl]-3-methyl-spiro[5,7-dihydrocyclopenta[c]pyridine-6,4'-piperidine]-5-amine hydrochloride], the concentration for half-maximal inhibition (IC50) is 5 nM.
As for `Cc1cc2c(cn1)CC1(CCN(c3nc(C)c(-c4ccccc4)n4nccc34)CC1)[C@@H]2N` [Compound 114, (5S)-3-methyl-1'-(6-methyl-7-phenyl-pyrazolo[1,5-a]pyrazin-4-yl)spiro[5,7-dihydrocyclopenta[c]pyridine-6,4'-piperidine]-5-amine hydrochloride], the figure is 10 nM; as for `Cc1nc(N2CCC3(CC2)Cc2ncccc2[C@H]3N)c2ccnn2c1-c1c(F)cccc1F` [Compound 115, (5S)-1'-[7-(2,6-difluorophenyl)-6-methyl-pyrazolo[1,5-a]pyrazin-4-yl]spiro[5,7-dihydrocyclopenta[b]pyridine-6,4'-piperidine]-5-amine], 11 nM.
Regarding `Cc1cc2c(cn1)CC1(CCN(c3nc(C)c(-c4ccnc(C)c4F)n4nccc34)CC1)[C@@H]2N` [Compound 116, (5S)-1'-[7-(3-fluoro-2-methyl-4-pyridyl)-6-methyl-pyrazolo[1,5-a]pyrazin-4-yl]-3-methyl-spiro[5,7-dihydrocyclopenta[c]pyridine-6,4'-piperidine]-5-amine], the IC50 is 8 nM.
